Here are results for 31 compounds from patent publication US7705030B2, “Amino-5-(5-membered)hetero-arylimidazolone compounds and the use thereof for β-secretase modulation” (Wyeth LLC, priority 2005, dated 2010).

One data set addresses human BACE1 (Homo sapiens, UniProt P56817). The data set is described as follows: Fluorescent kinetic assay: Evaluation of BACE-1 Binding Affinity of Test Compounds. It is filed as biochemical. The settings on record: 10 nM enzyme, 25 μM substrate WABC-6, 50 mM Na-Acetate pH 4.5, room temperature. In outline:
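Run with 10 nM human BACE1 and 25 μM WABC-6 FRET peptide in 50 mM Na-acetate pH 4.5, 0.05% CHAPS, 25% PBS at room temperature. Fluorescence (ex 320/em 420 nm) was read every 40 sec for 30 min, and initial cleavage rates were taken from linear slopes across ≥10 inhibitor concentrations.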

Sequence of human BACE1 (P56817 46-501): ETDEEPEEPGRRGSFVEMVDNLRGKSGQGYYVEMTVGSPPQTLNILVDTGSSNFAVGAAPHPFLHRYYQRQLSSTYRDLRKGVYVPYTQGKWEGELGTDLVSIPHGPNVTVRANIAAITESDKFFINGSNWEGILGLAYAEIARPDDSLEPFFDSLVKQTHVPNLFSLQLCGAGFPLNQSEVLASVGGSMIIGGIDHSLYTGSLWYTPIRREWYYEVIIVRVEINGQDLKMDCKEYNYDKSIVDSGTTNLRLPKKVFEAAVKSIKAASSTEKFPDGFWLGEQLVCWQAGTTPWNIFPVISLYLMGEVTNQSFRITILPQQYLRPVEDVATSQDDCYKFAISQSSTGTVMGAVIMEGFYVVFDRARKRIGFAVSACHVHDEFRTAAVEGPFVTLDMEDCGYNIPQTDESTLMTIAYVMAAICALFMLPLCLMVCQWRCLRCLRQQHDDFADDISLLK

`CN1C(=O)C(c2cccc(-c3cc(F)ccc3F)c2)(c2cnn(CC(F)(F)F)c2)N=C1N` (centres unmarked) [Example 84] returned a melting point of 98 to 100 °C. In addition, at human BACE1, the IC50 is 110 to 1000 nM.

`COC(=O)c1cc([C@]2(c3ccc(F)c(-c4cccnc4F)c3)N=C(N)N(C)C2=O)cn1CCF` [Example 184A, Methyl 4-{(4S)-2-amino-4-[4-fluoro-3-(2-fluoropyridin-3-yl)phenyl]-1-methyl-5-oxo-4,5-dihydro-1H-imidazol-4-yl}-1-(2-fluoroethyl)-1H-pyrrole-2-carboxylate] gave a melting point of 111 to 113 °C. At human BACE1, this compound registered an IC50 of 10 to 100 nM.

`CN1C(=O)C(c2cccc(-c3cccnc3F)c2)(c2cc(C#N)n(CCF)c2)N=C1N` (centres unmarked) [Example 231] displayed a melting point of 175 to 177 °C. At human BACE1, this compound showed a half-inhibitory concentration (IC50) of 10 to 100 nM.

With `CCn1cc(C2(c3cccc(-c4cccnc4F)c3)N=C(N)N(C)C2=O)cc1C(=O)NC` (centres unmarked) [Example 157], the melting point is 138 to 140 °C. The compound also had an IC50 on human BACE1 of 10 to 100 nM.

The compound `CCn1cc(C2(c3cccc(-c4cccnc4F)c3)N=C(N)N(C)C2=O)cc1C=O` (centres unmarked) [Example 233, 4-[2-amino-4-[3-(2-fluoropyridin-3-yl)phenyl]-1-methyl-5-oxo-4,5-dihydro-1H-imidazol-4-yl]-1-ethyl-1H-pyrrole-2-carbaldehyde] displayed a melting point of 198 to 201 °C. For the same compound, the IC50 on human BACE1 is 10 to 100 nM.

Compound `CCC(=O)c1cc(C2(c3cccc(-c4cccnc4F)c3)N=C(N)N(C)C2=O)cn1CCCC(F)(F)F` (centres unmarked) [Example 176] returned a melting point of 91 to 94 °C. For the same compound, on human BACE1, the concentration for half-maximal inhibition (IC50) was in the range of 10 to 100 nM.

The compound `CCCn1cc(C2(c3cccc(-c4cccnc4F)c3)N=C(N)N(C)C2=O)cc1C#N` (centres unmarked) [Example 230] came in with a melting point of 187 to 188 °C. Also, the concentration for half-maximal inhibition (IC50) at human BACE1 was 10 to 100 nM.

On to `CCC(=O)c1cc(C2(c3cccc(-c4cccnc4F)c3)N=C(N)N(C)C2=O)cn1CCCF` (centres unmarked) [Example 152], for which the melting point was determined as 105 °C. The same compound yielded an IC50 on human BACE1 of 10 to 100 nM.

`CC(C)COc1cccc(C2(c3ccsc3)N=C(N)N(C)C2=O)c1` (centres unmarked) [Example 148] came in with a melting point of 70 to 73 °C. Also, the IC50 on human BACE1 is 110 to 1000 nM.

`CN1C(=O)C(c2cccc(-c3cccnc3F)c2)(c2cnn(C3CCCC3)c2)N=C1N` (centres unmarked) [Example 100] came in with a melting point of 106 to 109 °C. In addition, the half-inhibitory concentration (IC50) on human BACE1 lay within 10 to 100 nM.

`CCn1cc(C2(c3cccc(-c4cccnc4F)c3)N=C(N)N(C)C2=O)cc1CO` (centres unmarked) [Example 239, 2-Amino-5-[1-ethyl-5-(hydroxymethyl)-1H-pyrrol-3-yl]-5-[3-(2-fluoropyridin-3-yl)phenyl]-3-methyl-3,5-dihydro-4H-imidazol-4-one] came in with a melting point of 170 to 172 °C. For the same compound, the IC50 on human BACE1 lay within 10 to 100 nM.

`CN1C(=O)C(c2ccc(OC(F)F)cc2)(c2cnn(CCF)c2)N=C1N` (centres unmarked) [Example 73]: the melting point lay within 140 to 142 °C. In addition, on human BACE1, the half-maximal inhibitory concentration (IC50) was more than 1000 nM.

`CCn1cc(C2(c3ccc(F)c(-c4cccnc4F)c3)N=C(N)N(C)C2=O)cc1C(=O)OC` (centres unmarked) [Example 123] returned a melting point of 113 to 115 °C. The same compound returned an IC50 at human BACE1 of 10 to 100 nM.

Compound `CCn1cc(C2(c3cccc(-c4cccnc4F)c3)N=C(N)N(C)C2=O)cc1C(=O)c1ccccc1` (centres unmarked) [Example 170] had a melting point of 104 to 106 °C. The 50% inhibitory concentration (IC50) at human BACE1 lay within 10 to 100 nM.

On to `CCCn1cc(C2(c3cccc(-c4cc(F)cnc4Cl)c3)N=C(N)N(C)C2=O)cc1C#N` (centres unmarked) [Example 232], for which the melting point fell in the range of 132 to 134 °C. Moreover, the IC50 on human BACE1 is 110 to 1000 nM.

In turn, `CCCCCC(=O)c1cc(C2(c3cccc(-c4cccnc4F)c3)N=C(N)N(C)C2=O)cn1CC` (centres unmarked) [Example 169] registered a melting point of 71 to 73 °C. For the same compound, at human BACE1, the IC50 lay in the range of 10 to 100 nM.

With `CN1C(=O)C(c2cccc(-c3cccnc3F)c2)(c2cnn(Cc3ccccc3)c2)N=C1N` (centres unmarked) [Example 103], the melting point was in the range of 94 to 97 °C. Also, the IC50 on human BACE1 lay within 10 to 100 nM.

In turn, `COC(=O)c1cc(C2(c3cccc(-c4ccc5c(c4)OCO5)c3)N=C(N)N(C)C2=O)cn1CCF` (centres unmarked) [Example 199] showed a melting point of 137 to 140 °C. Moreover, the half-inhibitory concentration (IC50) at human BACE1 fell in the range of 110 to 1000 nM.

In the case of `CCCNC(=O)c1cc(C2(c3cccc(-c4cccnc4F)c3)N=C(N)N(C)C2=O)cn1CC` (centres unmarked) [Example 159], the melting point lay in the range of 120 to 123 °C. In addition, the IC50 at human BACE1 was 110 to 1000 nM.

Turning to `CCC(=O)c1cc([C@]2(c3cccc(-c4cccnc4F)c3)N=C(N)N(C)C2=O)cn1CC` [Example 185, (5S)-2-Amino-5-(1-ethyl-5-propionyl-1H-pyrrol-3-yl)-5-[3-(2-fluoropyridin-3-yl)phenyl]-3-methyl-3,5-dihydro-4H-imidazol-4-one], the melting point was 94 to 97 °C. In addition, the half-maximal inhibitory concentration (IC50) at human BACE1 lay in the range of 10 to 100 nM.

In turn, `CN1C(=O)C(c2ccc(OC(F)F)cc2)(c2cnn(Cc3ccccc3)c2)N=C1N` (centres unmarked) [Example 75] gave a melting point of 74 to 76 °C. This compound showed a concentration for half-maximal inhibition (IC50) on human BACE1 of more than 1000 nM.

`CCn1cc(C2(c3ccc(F)c(-c4cncnc4)c3)N=C(N)N(C)C2=O)cn1` (centres unmarked) [Example 9, 2-Amino-5-(1-ethyl-1H-pyrazol-4-yl)-5-(4-fluoro-3-pyrimidin-5-ylphenyl)-3-methyl-3,5-dihydro-4H-imidazol-4-one]: the melting point was in the range of 120 to 121 °C. The same compound had an IC50 on human BACE1 of 10 to 100 nM.

`C=CCCCOc1cccc(C2(c3cc(C(=O)CC)n(CC)c3)N=C(N)N(C)C2=O)c1` (centres unmarked) [Example 140] yielded a melting point of 69 °C. Moreover, at human BACE1, the 50% inhibitory concentration (IC50) lay in the range of 10 to 100 nM.

For `CN1C(=O)C(c2cccc(O)c2)(c2cnn(CC(F)(F)F)c2)N=C1N` (centres unmarked) [Example 93, 2-amino-5-(3-hydroxyphenyl)-3-methyl-5-[1-(2,2,2-trifluoroethyl)-1H-pyrazol-4-yl]-3,5-dihydro-4H-imidazol-4-one], the melting point lay within 118 to 120 °C. Further, the half-inhibitory concentration (IC50) on human BACE1 was more than 1000 nM.

In the case of `CCC(=O)c1cc(C2(c3cccc(OCC4CC4)c3)N=C(N)N(C)C2=O)cn1CC` (centres unmarked) [Example 137], the melting point came out at 86 °C. For the same compound, the IC50 at human BACE1 was in the range of 10 to 100 nM.

`CCn1cc(C2(c3cccc(-c4cccnc4F)c3)N=C(N)N(C)C2=O)cc1C(=O)NC1CCCC1` (centres unmarked) [Example 162] came in with a melting point of 127 to 128 °C. The IC50 on human BACE1 lay in the range of 110 to 1000 nM.

Consider `CCn1cc(C2(c3cccc(-c4cccnc4F)c3)N=C(N)N(C)C2=O)cc1C(=O)C1CC1` (centres unmarked) [Example 172], for which the melting point was 98 to 100 °C. In addition, the concentration for half-maximal inhibition (IC50) on human BACE1 was in the range of 10 to 100 nM.

Consider `CCOC(=O)c1cc(C2(c3ccc(F)c(-c4cccnc4F)c3)N=C(N)N(C)C2=O)cn1CC` (centres unmarked) [Example 125], for which the melting point lay within 114 to 115 °C. For the same compound, the IC50 on human BACE1 was in the range of 10 to 100 nM.

`CCn1cc(C2(c3cccc(-c4cccnc4F)c3)N=C(N)N(C)C2=O)cc1C(=O)N(C)C` (centres unmarked) [Example 165]: the melting point was more than 200 °C. Moreover, on human BACE1, the 50% inhibitory concentration (IC50) was 110 to 1000 nM.

The compound `COc1ccc(C2(c3ccc(-c4ccc(F)cc4)s3)N=C(N)N(C)C2=O)cc1C` (centres unmarked) [Example 110, 2-Amino-5-[5-(4-fluorophenyl)thien-2-yl]-5-(4-methoxy-3-methylphenyl)-3-methyl-3,5-dihydro-4H-imidazol-4-one] showed a melting point of 110 °C. The same compound had a 50% inhibitory concentration (IC50) on human BACE1 of 110 to 1000 nM.

In the case of `CCn1cc(C2(c3cccc(-c4cccnc4F)c3)N=C(N)N(C)C2=O)cc1C(=O)NCc1ccc(F)cc1` (centres unmarked) [Example 166], the melting point was in the range of 110 to 112 °C. Moreover, the IC50 at human BACE1 lay within 110 to 1000 nM.
